Key:
[1] = test system: mitochondria of triticale microspores; assay: qRT-PCR of gfp mRNA, microspores transfected with pWMaadA16GFP; format: cell-based; details: gfp reporter construct
From the text: FIG. 17 is a plot showing the level of expression (fold increase, average of 4 replicates) of GFP in triticale microspores transfected with the pWMaadA16GFP plasmid in the presence of mTP1 (SEQ ID NO: 1), mTP2 (SEQ ID NO: 2), mTP3 (SEQ ID NO: 3), mTP4 (SEQ ID NO: 4) or mTP5 (SEQ ID NO: 5) compared to the level of expression (fold increase) of the internal control elongation factor 1a (EF1a), as measured by quantitative real time PCR of mRNA levels;
(§1) Wheat mitochondrial aadA16GFP reporter plasmid (pWMaadA16GFP, FIG. 11) is a 4587 base pair wheat specific mitochondrial transformation vector, which targets insertions into the fourth repeat region between the trnfM and rm18 gene cluster which is repeated three times in the Triticum aestivum mitochondrial genome. The insertion site is in the Triticum aestivum mitochondrial genome at nucleotides 300805-300878 and 300880-302834 (GenBank accession No. AP008982.1). A multiple cloning site is introduced following the tmfM target insertion sequence. The selection marker gene is an organelle codon specific aad-gfp fusion gene, which facilitates a dual selection method of spectinomycin resistance through an aadA derivative and visual detection by GFP fluorescence (GenBank accession No. ABX39486; Khan and Maliga, Nat. Biotechnol. (1999 September) 17(9): 910-5). The selection marker gene is driven by the Triticum aestivum mitochondrial atpA gene promoter (GenBank accession No. X54387.1). The aad-gfp fusion gene is terminated with the TpsbA terminator sequence derived from the Triticum aestivum mitochondrial genome at nucleotides 62871-62565 (GenBank accession No. AP008982.1).
The dsDNA construct (pWMaadA16GFP for mitochondrial expression or pWCaadA16GFP for expression in chloroplasts) is combined with the mTP (for mitochondrial expression) or cTP (for expression in chloroplasts) in the amounts used in the protoplast transformation experiments described above in a final volume of 100 μl of NBP-99 solution. The mixture is incubated for 10 minutes at room temperature, then incubated with isolated triticale microspores (500 μl, 10^6 microspores/ml, prepared as described in Example 2) for 1 h in the dark at room temperature. NBP-99 solution (500 μl) is added and the mixture is incubated in the dark for 24 h. The cells are imaged using confocal microscopy, as described in Example 2, using MitoTracker® Orange staining to visualize mitochondria.
Microspores are disrupted using a cleaned ceramic bead and aggressive shaking as the tissue is thawing. RLT buffer/B-Me (450 μl) is added and the sample is vortexed. The sample is heated at 55° C. for 1 minute and vortexed again. RNA is extracted using an RNeasy™ Plant Mini Kit (Qiagen), incorporating on-column DNase I digestion into the protocol. The final elution volume is 40 μl. RNA is assessed using both agarose gel […] (to ensure RNA is intact) and spectrophotometry (for quantification).
cDNA is generated using a First Strand Synthesis kit (Invitrogen). RNA (1 μg) is added to each sample and the manufacturer's protocol for synthesis followed, with the exception that the volume of the reaction mixture is increased from 20 μl to 30 μl. A negRT sample containing all reagents but no RNA is included in the cDNA synthesis as a negative control. […]
Real time PCR reactions are performed using QuantiTect™ SYBR™ Green PCR Master Mix (Qiagen) in a 20 μl reaction volume. […]

Caco-2 cells = assay: Caco-2 cell transformation with gfp reporter, photometric cell imaging; format: cell-based, human; details: for Fluorescence observed in cells upon transfection / Expression of GFP in mitochondria: Caco-2, mitochondrial gfp-reporter construct; for Expression of GFP in mitochondria: photometric cell imaging; for gfp expression, Photometric Cell Imaging (average counts/sec) Caco-2: pWMaadA16GFP 5 μg + peptide 500 μg, measured at 40 h
Description: (§2) Uptake of labeled peptides by cells is quantified using a photometric detector/cell-imaging system (PTI). An excitation scan is run to determine if uptake has occurred as indicated by peaks at the appropriate wavelengths and if the amount changes in a dose-dependent manner compared to unlabeled cells. A time-based scan is then performed at the optimal excitation and emission wavelength to quantify total uptake, using about 20 cells/view/replicate.
(§3) The ten non-labelled oTPs listed in Tables 3 and 4 were tested for their capability to deliver biologically active DNA to chloroplasts or mitochondria using an oTP-GFP reporter construct transfection assay. oTPs are mixed with a double stranded (ds) DNA construct encoding Aequorea victoria green fluorescent protein (GFP) to form a complex. The plasmid-peptide nanocomplexes formed are incubated with triticale mesophyll protoplasts, microspores, or MDCK, Caco-2, F1112 or MG cells. Detection of a fluorescent signal by confocal microscopy and/or photometric cell imaging would indicate that the dsDNA had been transported into organelles and that transient expression of GFP had occurred. In addition, gene expression can be measured using quantitative real-time PCR to determine gfp mRNA abundance.
as §1
(§4) The dsDNA construct (pWMaadA16GFP. 100 μl of the stock solution, 5 μg) is combined with mTP1 (SEQ ID NO: 1) or mTP4 (SEQ ID NO: 4) (100 μl of the unlabelled stock, 500 μg) and incubated for 15 minutes at 37° C. An 800 μl aliquot of DMEM is added to the mixture and 100 μl of this mixture is then added to each cell monolayer (prepared as described in Example 2) that has 500 μl complete media. The cells are incubated at 37° C. in a humidified atmosphere containing 5% CO2 for 24 h to 72 hr. The uptake and expression of the GFP reporter is measured at 40 h using a photometric detector/cell-imaging system (PTI) as described in Example 2. The cells are also imaged using confocal microscopy as described in Example 2 using MitoTracker® Orange staining to visualize mitochondria.

F1112 cells = assay: F1112 cell transformation with gfp reporter, photometric cell imaging; format: cell-based, bovine; details: for Fluorescence observed in cells upon transfection / Expression of GFP in mitochondria: F1112, mitochondrial gfp-reporter construct; for Expression of GFP in mitochondria: photometric cell imaging; for gfp expression, Photometric Cell Imaging (average counts/sec) F1112: pWMaadA16GFP 5 μg + peptide 500 μg, measured at 40 h
Description: as §2, §3, §1, §4

Q: MAAWMRSLFSPLKKLWIRMH (Zea mays) [mTP2] was tested. Which “GFP expression by mitochondria confirmed by qRT-PCR” value (shortened to “GFP expression … by qRT-PCR”) [1] did it give?
A: GFP is expressed

Q: Which results are given for “MWWRRSRTNSLRYT (listed as Arabidopsis thaliana) [mTP4]”?
A: Fluorescence observed in cells upon transfection (Caco-2 cells): no fluorescence was observed; Expression of GFP in mitochondria (Caco-2 cells): detected; gfp expression, Photometric Cell Imaging (average counts/sec) Caco-2 (Caco-2 cells): 570000 counts/sec; Fluorescence observed in cells upon transfection (F1112 cells): no fluorescence was observed; Expression of GFP in mitochondria (F1112 cells): detected; gfp expression, Photometric Cell Imaging (average counts/sec) F1112 (F1112 cells): 650000 counts/sec; GFP expression by mitochondria confirmed by qRT-PCR [1]: GFP is expressed

Q: With “MLFRLRRSVRLRGLLA (listed as Arabidopsis thaliana) [mTP5]” as the sequence, how does the “GFP expression … by qRT-PCR” value [1] read?
A: GFP is expressed

Q: For “MFSYLPRYPLRAASARALVRATRPSYRSALLRYQ (listed as Triticum aestivum) [mTP1]”, which “Fluorescence observed in cells upon transfection” value (Caco-2 cells) is on record?
A: fluorescence was observed in all cells

Q: And the “Expression of GFP in mitochondria” value (Caco-2 cells)?
A: detected

Q: And the “gfp expression, Photometric Cell Imaging (average counts/sec) Caco-2” value (Caco-2 cells)?
A: 2000000 counts/sec

Q: What about the “Fluorescence observed in cells upon transfection” value (F1112 cells) of the same sequence?
A: fluorescence was observed in all cells

Q: And the “Expression of GFP in mitochondria” value (F1112 cells)?
A: detected

Q: What about the “gfp expression, Photometric Cell Imaging (average counts/sec) F1112” value (F1112 cells) of the same sequence?
A: 1900000 counts/sec

Q: What about the “GFP expression … by qRT-PCR” value [1] of the same sequence?
A: GFP is expressed

Q: For “MKLLWRLILSRKW (listed as Arabidopsis thaliana) [mTP3]”, which “GFP expression … by qRT-PCR” value [1] is on record?
A: GFP is expressed

Source: US20140196172A1, “Organelle Targeting Nanocarriers” (Her Majesty the Queen in Right of Canada, as Repre sented …, priority 2011, published 2014)
